Reference: patent publication US20180092923A1, “METHODS FOR TREATING LYSOSOMAL STORAGE DISORDERS” (BIOMARIN PHARMACEUTICAL INC., priority 2015, published 2018)
pIC50: −log10 of the molar value.

System: GM01896 cells
Assay: MPS II cellular assay
Format: cell-based
Settings: Homo sapiens, Fibroblast; dermal fibroblasts from an individual with MPS II (GM01896); heparan sulfate disaccharide I2a4, I2a6, I2S0 and/or I2S6 detected by LC-MS
Experimental: Dermal fibroblasts from humans with an MPS disorder and from healthy donors were grown. Cells were expanded and kept in culture for analysis.
Human foreskin fibroblasts are obtained from the American Type Culture Collection (CRL-1634). […] Sulfamidase activity in cell extracts is measured with 4-methylumbelliferyl-α-D-N-sulfoglucosaminide according the vendors instructions substituting Tris-acetate buffer (pH 6.5; Moscerdam). […]
Cell monolayers are washed with phosphate buffered saline and detached by treatment with GIBCO trypsin-EDTA solution (Invitrogen). […] The amount of protein is determined by bicinchoninic acid (BCA assay, Thermo Scientific). […]
Enzymatically depolymerized GAG preparations are differentially mass labeled by reductive amination with [^12C6]aniline. […] Samples are then analyzed by LC-MS using an LTQ Orbitrap Discovery electrospray ionization mass spectrometer (Thermo Scientific) equipped with quaternary HPLC pump (Finnigan Surveyor MS pump) and a reverse-phase capillary column.
For MPS II, GM01896 cells were treated with a compound described herein and the heparan sulfate disaccharide detected was [^12C6]aniline-tagged I2a4, I2a6, I2S0 and/or I2S6. […] Cell viability was monitored using alamar blue or ATP quantification. IC50's were calculated using curve fitting within the ChemInnovation CBIS database system.

Cc1cccc(/C=N/Nc2cc(N3CCOCC3)nc(OCCc3ccccn3)n2)c1 [Compound 11, (E)-4-(6-(2-(3-methylbenzylidene)hydrazinyl)-2-(2-(pyridin-2-yl)ethoxy)pyrimidin-4-yl)morpholine]
pIC50: 6.77
